The subject of series [1] is protein kinases extracted from HT-29 cell line. Nature of the series: Kinase inhibition assessment, single dose, ADP-Glo assay. The series is classed as biochemical, human. The settings on record: 20 μM single dose, total intracellular kinases from HT-29, 45 min. On the procedure:
Inhibitory activity against kinases of the selected compounds was examined using homogeneous protein kinases extracted from HT-29 cell line. The screening assay was performed in a single dose concentration (20 μM) by using ADP-Glo assay (Promega, Madison, WI, USA).
Briefly, protein kinases were added into a 96-well plate followed by addition of the synthesized compounds at the tested dose (20 μM). After 45 min of exposure, kinase activity was assessed using a luminescent luciferase/luciferin reaction. Luminescence quantification was measured by using a Varioskan™ LUX multimode microplate reader (Thermo Scientific, Waltham, MA, USA). Kinase inhibition effect of tested compounds was expressed as the percentage of remaining kinase activity relative to vehicle kinase reaction.

The test system of another series is HT-29. Nature of the series: MTT dose-response anti-proliferative assay, HT-29. The series is classed as cell-based. The settings on record: Homo sapiens; HT-29, MTT. From the text:
(§1) Doxorubicin was used as a positive reference for the comparison of anticancer activities. The results are tabulated as IC50 value in the μM range, Table 1.
(§2) Three cancer cell lines were used in the antiproliferative activities experiments, namely, breast cancer cell line (MCF-7) and human hepatoma cell line (HepG-2), and Colorectal cell line (HT-29). The source of cell lines is the health sciences research center-core lab- at princess Nou-rah bint Abdulrahman university. All cell lines were maintained in their optimum media (RPMI-1640 or DMEM) supplemented with 10% fetal bovine serum, 100 U/mL penicillin, and 100 μg/mL streptomycin and incubated in a humidified atmosphere at 37 °C with 5% CO2.
(§3) The MTT assay was used to evaluate the anti-proliferative effect of the synthesized compounds against three human cancer cell lines hepatocellular carcinoma (HepG-2), breast cancer (MCF-7) and Colorectal carcinoma (HT-29). For the preliminary screening, HT-29 cells were seeded in 96-well plates (Thermo Scientific, Waltham, MA, USA)(10^3 cells/well) and incubated for 24 h before the treatment. Then, cells were treated with two concentrations (10 and 100 µM) of the tested compounds for 72 h. After the exposure, MTT assay protocol was performed as described. After evaluation of the preliminary anticancer activity, the promising synthesized compounds (8, 9a, 9b, 10a, and 11) were selected and examined against three cell lines (HepG-2, MCF-7, and HT-29). Cells were exposed to serial concentration ([…]) of the selected compounds and dose–response curves were determined to calculate their IC50 values.

The next series concerns HT-29 cells. Nature of the series: Preliminary antiproliferative assessment (MTT) at 10 and 100 μM. The series is classed as cell-based, human. The note with it: for growth inhibitory activities against HT-29 cells (preliminary assay): 10 and 100 μM, 72 h; for cytotoxic profile: result in words. The procedure: All synthesized compounds were subjected to preliminary antiproliferative assessment that was performed on HT-29 cells using concentrations 10 and 100 μM of synthesized compounds for 72 h and the percentage of cell viability was then calculated. […] Thus, all five compounds were further studied by a detailed dose–response relationship against three different cancerous cell lines HT-29, Hep-G2 and MCF-7.
as §2, §3

The subject of series [2] is normal colon epithelial cells (CCD 841 CoN). Nature of the series: Selectivity assay (MTT) on non-cancerous cells. The series is classed as cell-based. The settings on record: for IC50: Homo sapiens, CCD 841 CoN, 72 h, MTT, read-out: IC50 of Non-Cancer Cells CCD 841; for Selectivity Index (SI) (IC50 of CCD 841/IC50 of HT29): ratio normal CCD 841 / cancer HT-29, 72 h. On the procedure: In an attempt to evaluate the anticancer activity of the compounds, selectivity assay was performed and compounds’ selectivity to malignant cells was determined, reflected by their selectivity index. The selectivity index (SI) was calculated by the ratio of the IC50 value of the selected compounds on normal colon epithelial cells (CCD 841 CoN) to the IC50 value of the compounds on cancer cells (HT-29). […] However, based on the designed strategy, this high selectivity towards cancer cells may be attributed to their ability to target oncogenic kinases.
Cells were plated in 96-well plates (10^3 cells/well), and after 24 h, the compounds in concentrations (0.1 to 100 μM) were incubated for 72 h. MTT procedure was then performed, the ratio of IC50 values of the compounds on non-cancerous cells (CCD 841 CoN) to the IC50 values of the compounds on cancer cells (HT-29) was determined as reported, [23, 24] using the following equation, SI = IC50 of normal cells/IC50 of cancer cells.

The next series relates to MCF-7. Nature of the series: MTT dose-response anti-proliferative assay, MCF-7. The series is classed as cell-based, human. The note with it: Homo sapiens, MCF7, MCF-7, MTT.
Excerpt: as §1, §2, §3

The next series concerns the target T1, FLT3 (Homo sapiens, UniProt P36888).
T1 construct: purchased BD Biosciences, San Diego, CA, USA
T1 sequence (P36888 27-993): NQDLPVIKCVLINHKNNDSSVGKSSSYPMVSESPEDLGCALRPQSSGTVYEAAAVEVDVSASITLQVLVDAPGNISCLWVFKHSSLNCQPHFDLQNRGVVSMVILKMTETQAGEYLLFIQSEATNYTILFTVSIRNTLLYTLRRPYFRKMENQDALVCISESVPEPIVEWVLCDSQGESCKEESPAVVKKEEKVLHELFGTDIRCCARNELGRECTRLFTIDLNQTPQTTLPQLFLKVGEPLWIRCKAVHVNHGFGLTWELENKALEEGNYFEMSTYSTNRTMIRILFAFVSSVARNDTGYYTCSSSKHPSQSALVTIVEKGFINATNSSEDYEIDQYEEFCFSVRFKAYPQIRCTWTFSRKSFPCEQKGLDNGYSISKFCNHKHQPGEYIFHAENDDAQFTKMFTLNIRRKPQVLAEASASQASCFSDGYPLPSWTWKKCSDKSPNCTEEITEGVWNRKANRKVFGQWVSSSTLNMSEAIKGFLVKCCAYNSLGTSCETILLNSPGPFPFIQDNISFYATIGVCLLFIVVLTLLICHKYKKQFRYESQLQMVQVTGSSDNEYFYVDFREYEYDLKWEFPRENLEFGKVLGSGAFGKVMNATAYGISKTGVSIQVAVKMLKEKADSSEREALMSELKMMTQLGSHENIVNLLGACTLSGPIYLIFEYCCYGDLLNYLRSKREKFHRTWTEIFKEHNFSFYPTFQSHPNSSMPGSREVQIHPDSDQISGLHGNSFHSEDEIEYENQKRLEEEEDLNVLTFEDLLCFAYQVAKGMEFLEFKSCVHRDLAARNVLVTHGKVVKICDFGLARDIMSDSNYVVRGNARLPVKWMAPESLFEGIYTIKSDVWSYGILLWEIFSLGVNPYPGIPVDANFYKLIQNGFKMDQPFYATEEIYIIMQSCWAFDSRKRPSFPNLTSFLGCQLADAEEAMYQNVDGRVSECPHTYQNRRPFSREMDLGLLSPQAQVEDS
Nature of the series: In-vitro FLT3 kinase enzyme inhibition assay (FLT3 Kinase Assay Kit). The note with it: FLT3 1.5 ng/µL, 45 min, mean ± SD, n = 3; read-out: FLT3 kinase inhibitory activity IC50. The series is classed as biochemical. The procedure:
FLT3 Kinase Assay Kit (BD Biosciences, San Diego, CA, USA) was used to determine the inhibitory selectivity of the selected compounds towards the FLT3 enzyme. briefly, serial dilution of the selected compounds was incubated with FLT3 (1.5 ng/µL) for 45 min in a kinase reaction buffer. The FLT3 enzyme reaction was halted and measured by quantifying the amount of ADP produced during the enzyme reaction. Luminescence values were measured by a Varioskan™ LUX multimode microplate reader (Thermo Scientific, Waltham, MA, USA). IC50 was calculated with nonlinear regression compared with untreated reaction using Prism version 8.4.3 (GraphPad).

A further series relates to HepG-2. Nature of the series: MTT dose-response anti-proliferative assay, HepG-2. The note with it: Homo sapiens, HepG2; HepG-2, MTT. The series is classed as cell-based.
Excerpt: as §1, §2, §3

In turn, `Cc1nc2sc3c(c2c(=O)n1NC(=O)CNc1cc(C(C)(C)C)on1)CCCC3` [Compound 9b, 2-(5-Tert-butylisoxazol-3-ylamino)-N-(2-methyl-4-oxo-5,6,7,8-tetrahydrobenzo[4,5]thieno[2,3-d]pyrimidin-3(4H)-yl)acetamide] had a melting point of 98 to 100 °C. For the same molecule, the kinase inhibition in series [1] was found to be 13.05%. Besides, in the series on HT-29, half-maximal inhibition (IC50) required 0.85 ± 0.16 µM. Besides, the “growth inhibitory activities against HT-29 cells (preliminary assay)” value (from here on “growth inhibitory activities”) with HT-29 cells is given as “moderate to significant”. Moreover, in series [2], the IC50 amounted to 17.2 ± 1.4 µM and the “Selectivity Index (SI) (IC50 of CCD 841/IC50 of HT29)” value (“Selectivity Index (SI)” below) was found to be 20.2. Further, it took 16.3 ± 2.3 µM to reach half-maximal inhibition in the series with MCF-7 (IC50). In addition, the IC50 at FLT3 was 47.6 ± 9.3 µM. The molecule also returned an IC50 in the series with HepG-2 of 9.11 ± 0.3 µM.

`Cc1nc2sc3c(c2c(=O)n1NC(=S)Nc1ccccc1)CCCC3` [Compound 5, 1-(2-Methyl-4-oxo-5,6,7,8-tetrahydrobenzo[4,5]thieno[2,3-d]pyrimidin-3(4H)-yl)-3-phenylthiourea] displayed a melting point of 138 to 140 °C.

`Cc1nc2sc3c(c2c(=O)n1N1C(=O)CN(c2ccccc2)C1=S)CCCC3` [Compound 6, 2-Methyl-3-(5-oxo-3-phenyl-2-thioxoimidazolidin-1-yl)-5,6,7,8-tetrahydrobenzo[4,5]thieno[2,3-d]pyrimidin-4(3H)-one] returned a melting point of 198 to 200 °C.

With `Cc1nc2sc3c(c2c(=O)n1NCC(=O)Nc1cc(C(C)(C)C)no1)CCCC3` [Compound 7a, 2-(2-Methyl-4-oxo-5,6,7,8-tetrahydrobenzo[4,5]thieno[2,3-d]pyrimidin-3(4H)-ylamino)-N-(3-tert-butylisoxazol-5-yl)acetamide], the melting point was 120 to 122 °C.

For the molecule `Cc1nc2sc3c(c2c(=O)n1NC(=O)CNc1cc(C(C)(C)C)no1)CCCC3` [Compound 9a, 2-(3-Tert-butylisoxazol-5-ylamino)-N-(2-methyl-4-oxo-5,6,7,8-tetrahydrobenzo[4,5]thieno[2,3-d]pyrimidin-3(4H)-yl)acetamide], the melting point lay in the range of 89 to 92 °C. Moreover, in the series with HT-29, the IC50 amounted to 1.21 ± 0.34 µM. For the same molecule, the “growth inhibitory activities” value with HT-29 cells was “moderate to significant”. In series [2], the IC50 came to 11.3 ± 5.6 µM and the “Selectivity Index (SI)” value stood at 9.4. Further, inhibition with MCF-7 was half-maximal at 7.2 ± 1.9 µM (IC50). On FLT3, the IC50 turned out to be 20.4 ± 2.8 µM. Also, the IC50 with HepG-2 came to 6.62 ± 0.7 µM.

Take `Cc1nc2sc3c(c2c(=O)n1NC(=O)CN1CCN(C)CC1)CCCC3` [Compound 10b, N-(2-methyl-4-oxo-5,6,7,8-tetrahydrobenzo[4,5]thieno[2,3-d]pyrimidin-3(4H)-yl)-2-(4-methylpiperazin-1-yl)acetamide]: the melting point lay in the range of 187 to 189 °C. Besides, the cytotoxic profile entry in the series on HT-29 cells is listed as “weak cytotoxic profile”.

With `Cc1nc2sc3c(c2c(=O)n1NCC(=O)Nc1cc(C(C)(C)C)on1)CCCC3` [Compound 7b, 2-(2-Methyl-4-oxo-5,6,7,8-tetrahydrobenzo[4,5]thieno[2,3-d]pyrimidin-3(4H)-ylamino)-N-(5-tert-butylisoxazol-3-yl)acetamide], the melting point is 128 to 130 °C.

The molecule `CC1=CC(=O)N(n2c(C)nc3sc4c(c3c2=O)CCCC4)C1=O` [Compound 4, 3-Methyl-1-(2-methyl-4-oxo-5,6,7,8-tetrahydrobenzo[4,5]thieno[2,3-d]pyrimidin-3(4H)-yl)-1H-pyrrole-2,5-dione] gave a melting point of 125 to 127 °C. Also, in the series with HT-29 cells (100 µM, preliminary assay), the “growth inhibition at concentration 100 µM” value was “weak growth inhibition”.

Regarding `Nn1c(Nc2ccccc2)nc2sc3c(c2c1=O)CCCC3` [Compound 12, 3-Amino-2-phenylamino-5,6,7,8-tetrahydrobenzo[4,5]thieno[2,3-d]pyrimidin-4(3H)-one], the melting point lay in the range of 198 to 200 °C. This molecule also had a kinase inhibition in series [1] of 65.3%. The IC50 at FLT3 was found to be 27.2 ± 5.6 µM.

For `COc1cccc2c1C(=O)c1c(O)c3c(c(O)c1C2=O)C[C@@](O)(C(=O)CO)C[C@@H]3O[C@H]1C[C@H](N)[C@H](O)[C@H](C)O1` [Dox, Doxorubicin, reference compound], the IC50 with HT-29 is 1.4 ± 1.16 µM; in the series on MCF-7, 8.43 ± 0.5 µM; in the series on HepG-2, 13.9 ± 2.2 µM.

In the case of `Cc1nc2sc3c(c2c(=O)n1NC(=O)CN1CCOCC1)CCCC3` [Compound 10a, N-(2-methyl-4-oxo-5,6,7,8-tetrahydrobenzo[4,5]thieno[2,3-d]pyrimidin-3(4H)-yl)-2-morpholinoacetamide], the melting point lay within 222 to 225 °C. The molecule further showed a kinase inhibition in series [1] of 75.1%. Half-maximal inhibition with HT-29 (IC50) required 167 ± 8.15 µM. In addition, in the series on HT-29 cells, the “growth inhibitory activities” value is given as “moderate to significant” and the cytotoxic profile entry is “weak cytotoxic profile”. This molecule displayed an IC50 in the series on MCF-7 of 105 ± 36.4 µM. For the same molecule, the IC50 at FLT3 stood at 17.8 ± 3.8 µM. The IC50 in the series on HepG-2 worked out at 188 ± 28.2 µM.

In turn, `Cc1nc2sc3c(c2c(=O)n1NC(=O)CCl)CCCC3` [Compound 8, 2-Chloro-N-(2-methyl-4-oxo-5,6,7,8-tetrahydrobenzo[4,5]thieno[2,3-d]pyrimidin-3(4H)-yl)acetamide] displayed a kinase inhibition in series [1] of 49.6%. Moreover, the IC50 in the series with HT-29 is 2 ± 0.62 µM; in series [2], 151 ± 20.2 µM; with MCF-7, 11 ± 0.8 µM; in the series on HepG-2, 13.5 ± 2.7 µM. Moreover, the “growth inhibitory activities” value in the series on HT-29 cells is recorded as “moderate to significant”. Besides, the “Selectivity Index (SI)” value in series [2] is 75.5.

The values above are taken from PMC8880588, “In-Silico Screening of Novel Synthesized Thienopyrimidines Targeting Fms Related Receptor Tyrosine Kinase-3 and Their In-Vitro Biological Evaluation” (Pharmaceuticals, 2022).
